Data taken from patent US20140057829A1, “Citrullinated Histone H3 (Cit H3) in Septic Shock” (THE GENERAL HOSPITAL CORPORATION, priority 2011, published 2014).
Entries after “also recorded” stand apart in the source; their conditions may differ.

Tests used:
HL-60 granulocytes = test: Western blots of H3, Ac H3 and Cit H3 in lysates and medium of LPS-stimulated HL-60 granulocytes; format: cell-based, human; conditions: 3 h
Protocol: Neutrophils might be a source of serum histone H3 during sepsis. To test whether histone H3 deimination/citrullination is induced as part of the neutrophil response to bacterial endotoxin, HL-60 cells obtained from American Type Culture Collection (ATCC) were maintained in Iscove's modified DMEM medium (Invitrogen Life Technologies, Carlsbad, Calif.) supplemented with 20% fetal bovine serum (FBS). These cells were grown at 37° C. in a humidified incubator in 5% CO2 and 95% air, and differentiated into granulocytes by culturing the cells in medium containing 1 μM ATRA for 3 days. The ATRA-differentiated HL-60 granulocytes were treated with 4 μM calcium ionophore in medium containing 1.5 mM calcium chloride, and then incubated with LPS (100 ng/ml) in the presence or absence of SAHA (10 μM) over 3 h. Following incubation, medium was collected, and cell lysates were prepared. The medium and the lysates were tested for H3, Ac H3, Cit H3 and actin (internal control) by Western blots. To ensure there was no false positive data that may be produced from the medium with dead cells, the cells were carefully treated and a sham group was also set up as a control.

histone H3 in serum [1] = test: iTRAQ screen for serum biomarkers in LPS-induced septic shock and SAHA treatment; format: in vivo; conditions: LPS-induced septic shock; 5 h after first SAHA treatment, 3 h after LPS injection
Protocol: To identify biomarkers of septic shock and treatment, isobaric tag labeling for relative and absolute quantitation (iTRAQ) was performed as described in WO 2010/126635 (which is incorporated herein by reference) in sham (no LPS and no treatment), septic shock (3 h after LPS injection) and SAHA treated (5 h after the first SAHA treatment, and 3 h after LPS injection) animals. Several potential serum biomarkers in LPS-induced septic shock and treatment were found. One of them was histone H3, a chromatin protein in nucleus.

histone H3 in serum [2] = test: Serum histone H3 by Western blot in LPS-induced septic shock mice treated with or without SAHA; format: in vivo; conditions: blood 3 h after LPS
Protocol: To assure that the data were reliable, independent serum samples were collected and analyzed. As in a previous study (Li et al., Shock. 2009; 32(5): 517-523), male C57B1/6J mice (n=9, 3/group) weighing 25-30 g (purchased from Jackson Labs (Bar Harbor, Me.)) were randomly divided into two groups: LPS control, and SAHA+LPS. Normal saline (10 μl/g body weight) or LPS (20 mg/kg) dissolved in normal saline was injected intraperitoneally. The mice were given DMSO (1 μl/g body weight) or SAHA (50 mg/kg) dissolved in DMSO intraperitoneally 2 hours (h) before, and then soon after injection of LPS. Sham mice (no LPS, no SAHA) were used as the control. Serum separated from these blood samples was saved at −80° C. and used for the current experiment. In the present study, a large dose (35 mg/kg) or a small dose (10 mg/kg) of LPS was administrated intraperitoneally. […] Survival rate was then recorded for over the next 7 days. […]
The samples were analyzed by Western blot with anti-histone H3 antibody. […] The primary antibody was detected by incubation with horseradish peroxidase-coupled second antibody (1:3,000 in PBST with 5% milk) at room temperature for 2 h. […] Films were developed using a standard photographic procedure and quantitative analysis of detected bands was carried out by densitometer scanning using VersaDoc Imaging System (BioRad Laboratories, Hercules, Calif.).

[3] = test system: rodent models of LPS-induced septic shock; conditions: rodent models of LPS-induced septic shock (Li et al. 2009, 2010); cited from earlier work
TNF-α = test: Serum TNF-α ELISA after small or large dose of LPS; format: in vivo, mice; conditions: 3 h after endotoxin insult
Protocol: There is general agreement that the main pathogenic mediator in lethal septic shock is TNF-α (Beutler and Cerami, Annu Rev Immunol. 7: 625-55, 1989). To determine whether TNF-α can predict lethality of LPS-induced shock as well as Cit H3, blood was collected from sham, LPS (SD), and LPS (LD) groups at 3 h after LPS injection (n=5/group). Quantitative determination of TNF-α in the blood of mice was made using Quantikine Enzyme-Linked Immunosorbent Assay (ELISA) Kit (R&D Systems, Minneapolis, Minn.) according to manufacturer's instruction. The concentration of the cytokine was measured by optical densitometry at 450 nm in a SpectramaxPlus 384 microplate reader (Molecular Devices, Sunnyvale, Calif.). All of the analyses were performed in triplicates.

serum Cit H3 and H3 = test: Serum Cit H3, H3 and Ac H3 by Western blot after small or large dose of LPS; format: in vivo, mice; conditions: 3 h after injection
Protocol: The samples were analyzed by Western blot with anti-histone H3 antibody. Western blot analysis was performed as follows. Proteins (about 100 μg per lane) were separated by sodium dodecyl sulphate-polyacrylamide gel electrophoresis (SDS-PAGE) on 15% polyacrylamide gels and transferred onto nitrocellulose membranes (Bio-Rad Laboratories, Hercules, Calif.). The membranes were blocked in 0.05% PBS-Tween (PBST) containing 5% milk (Bio-Rad Laboratories, Hercules, Calif.) and then incubated with the primary antibody at 4° C. overnight. The primary antibody was detected by incubation with horseradish peroxidase-coupled second antibody (1:3,000 in PBST with 5% milk) at room temperature for 2 h. The chemiluminescence detection was performed by using WesternLighting Chemiluminescence Reagent Plus (PerkinElmer LAS, Inc., Boston, Mass.). Films were developed using a standard photographic procedure and quantitative analysis of detected bands was carried out by densitometer scanning using VersaDoc Imaging System (BioRad Laboratories, Hercules, Calif.).
It has been reported that the effects of LPS on lethality and protein expression are dose-dependent (Barton and Jackson, Infect Immun. 1993; 61(4): 1496-1499; Haque et al., Pneumon. 2009; 22(2): 143-155). […] The serum levels of all three histone H3 were then measured and correlated to mortality. […]

mice = test: Survival of mice after small or large dose of LPS; format: in vivo; conditions: for survival rate: 7 day observation
Protocol: To assure that the data were reliable, independent serum samples were collected and analyzed. As in a previous study (Li et al., Shock. 2009; 32(5): 517-523), male C57B1/6J mice (n=9, 3/group) weighing 25-30 g (purchased from Jackson Labs (Bar Harbor, Me.)) were randomly divided into two groups: LPS control, and SAHA+LPS. Normal saline (10 μl/g body weight) or LPS (20 mg/kg) dissolved in normal saline was injected intraperitoneally. The mice were given DMSO (1 μl/g body weight) or SAHA (50 mg/kg) dissolved in DMSO intraperitoneally 2 hours (h) before, and then soon after injection of LPS. Sham mice (no LPS, no SAHA) were used as the control. Serum separated from these blood samples was saved at −80° C. and used for the current experiment. In the present study, a large dose (35 mg/kg) or a small dose (10 mg/kg) of LPS was administrated intraperitoneally. All animals were housed in plastic cages and had access to chow and water throughout the experiment. The animals were kept at room temperature (24±2° C.) and exposed to alternative cycles of 12 h light and darkness. Survival rate was then recorded for over the next 7 days. Blood was collected from the orbital sinus (as described in Hoff, Lab Animal. 2000; 29(10): 47-53) at 3 h after LPS injection.
It has been reported that the effects of LPS on lethality and protein expression are dose-dependent (Barton and Jackson, Infect Immun. 1993; 61(4): 1496-1499; Haque et al., Pneumon. 2009; 22(2): 143-155). To determine whether serum levels of H3, Cit H3 and acetylated H3 were dependent on the LPS dose, the mice were injected with a small dose ([…]) or a large dose ([…]). The serum levels of all three histone H3 were then measured and correlated to mortality. Mice were randomly divided into three groups (n=10/group): (1) sham group (no LPS), (2) LPS small dose (SD) group, and (3) LPS large dose (LD) group. Blood was collected at 3 h after LPS injection and serum was prepared for immunoblotting.

Which “Cit H3 in cultured cell medium (secretion)” value (HL-60 granulocytes; SAHA 10 μM + LPS 100 ng/ml) does the source give for `O=C(CCCCCCC(=O)Nc1ccccc1)NO` [SAHA, suberoylanilide hydroxamic acid] here?
The value was “decreases; also recorded: no detectable”.

What about the “H3 in cultured cell medium” value (HL-60 granulocytes; SAHA 10 μM + LPS 100 ng/ml) of the same compound?
Its value is “no detectable”.

And the “acetylated H3 in cell lysates” value (HL-60 granulocytes; SAHA 10 μM + LPS 100 ng/ml)?
Its value is “increase”.

And the “expression of Cit H3 in cell lysates” value (HL-60 granulocytes; SAHA 10 μM + LPS 100 ng/ml)?
The value was “decreases; also recorded: significantly reduced”.

What about the “histone H3 in serum (iTRAQ)” value (histone H3 in serum [1]) of the same compound?
The value was “decreased histone H3 in serum dramatically”.

What about the “serum histone H3 (Western blot)” value (histone H3 in serum [2]; SAHA 50 mg/kg i.p. 2 h before and soon after LPS 20 mg/kg) of the same compound?
The value was “no histone H3 was detected”.

What about the survival [3] of the same compound?
Its survival is “improves survival”.

With lipopolysaccharide [LPS] as the compound, how does the “Cit H3 in cultured cell medium” value (HL-60 granulocytes; LPS 100 ng/ml) read?
Its value is “more”.

What about the “H3 in cultured cell medium” value (HL-60 granulocytes; LPS 100 ng/ml) of the same compound?
The value was “more”.

And the “Cit H3 in cell lysates” value (HL-60 granulocytes; LPS 100 ng/ml, compared to sham)?
Its value is “increase”.

What about the “serum TNF-α” value (TNF-α; LPS LD (35 mg/kg)) of the same compound?
Its value is 792 pg/mL.

What about the “serum TNF-α” value (TNF-α; LPS SD (10 mg/kg)) of the same compound?
The value was 741 pg/mL.

What about the “serum histone H3 (Western blot)” value (histone H3 in serum [2]; LPS 20 mg/kg i.p. without SAHA) of the same compound?
The value was “a histone H3 band was clearly observed”.

What about the “Serum H3” value (serum Cit H3 and H3; LPS SD (10 mg/kg i.p.)) of the same compound?
The value was “increase”.

And the “serum Ac H3” value (serum Cit H3 and H3; all animals (LPS SD and LD))?
The value was “No Ac H3 was detected”.

And the average survival time (mice; LPS LD (35 mg/kg i.p.))?
The average survival time was “about 20 h”.

And the “earliest time of death” value (mice; LPS LD (35 mg/kg i.p.))?
The value was ~16 h.

And the longest survival time (mice; LPS LD (35 mg/kg i.p.))?
The longest survival time was 23 h.

And the “time by which all mice died” value (mice; LPS LD (35 mg/kg i.p.))?
Its value is “less than 23 h”.

And the survival rate (mice; LPS LD (35 mg/kg i.p.))?
Its survival rate is 0%.

And the “Mice died within 23 h” value (mice; LPS LD (35 mg/kg i.p.), n = 10)?
The value was 10.

What about the average survival time (mice; LPS SD (10 mg/kg i.p.)) of the same compound?
The average survival time was ~146 h.

And the “earliest time of death” value (mice; LPS SD (10 mg/kg i.p.))?
The value was 27 h.

And the survival rate (mice; LPS SD (10 mg/kg i.p.))?
Its survival rate is 90%.

And the longest survival time (mice; LPS SD (10 mg/kg i.p.), 168 h observation)?
Its longest survival time is 168 h.

What about the “Mice died within 23 h” value (mice; LPS SD (10 mg/kg i.p.), n = 10) of the same compound?
Its value is “None”.

And the “Mice survived over 168 h” value (mice; LPS SD (10 mg/kg i.p.), n = 10)?
Its value is 9.
